Assay results reported in paper PMC6994673, “Metabolism of multiple glycosaminoglycans by Bacteroides thetaiotaomicron is orchestrated by a versatile core genetic locus” (Nature Communications, 2020).

Target: T1, BT3349-S1_27^4S-sulf (Bacteroides thetaiotaomicron, UniProt Q8A2F6)
T1 construct: gene BT_3349; pET28a, N- or C-terminal His6, E. coli; Talon and size exclusion; periplasmic, SpII signal peptide
T1 sequence (Q8A2F6 13-508): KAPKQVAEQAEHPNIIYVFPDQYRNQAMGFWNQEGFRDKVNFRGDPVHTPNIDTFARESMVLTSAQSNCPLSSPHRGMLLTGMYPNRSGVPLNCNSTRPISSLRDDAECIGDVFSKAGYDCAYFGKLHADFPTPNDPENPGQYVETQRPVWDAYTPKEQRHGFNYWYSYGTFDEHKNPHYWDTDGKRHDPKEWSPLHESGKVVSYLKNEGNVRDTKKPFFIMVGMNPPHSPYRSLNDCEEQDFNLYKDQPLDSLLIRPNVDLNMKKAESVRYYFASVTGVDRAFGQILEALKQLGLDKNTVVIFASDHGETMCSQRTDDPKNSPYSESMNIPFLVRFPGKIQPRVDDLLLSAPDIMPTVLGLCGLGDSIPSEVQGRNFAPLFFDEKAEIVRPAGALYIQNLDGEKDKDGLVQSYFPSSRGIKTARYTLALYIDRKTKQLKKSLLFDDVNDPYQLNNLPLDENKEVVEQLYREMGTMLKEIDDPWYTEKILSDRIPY
Test: continuous linked assay with GH88, loss of absorbance at […] nm
Type: biochemical
Settings: 50 mM MES pH 6.0 or Bis-Tris propane pH 6.5, 150 mM NaCl, 37 °C; kinetic parameters only in supplement, kind not told

Question: How did the kinetic parameters turn out when `CC(=O)N[C@H]1C(O)O[C@H](CO)[C@H](OS(=O)(=O)O)[C@@H]1O[C@@H]1OC(C(=O)O)=C[C@H](O)[C@H]1O` (stereo partly shown) [Δ4,5UA-GalNAc4S] was run?
Answer: monitored via a continuous linked assay using BT3334^GH88 and UA-GalNAc4S as the substrate
